Reference: the supplement of paper PMC10307832

How the values were obtained:
Assay in all cases: relative viability (nuclei count vs DMSO), 5 days (fraction); higher = more cells survive
[1] = system: NCI-H1755
In short: (§1)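 Nuclei were stained with Hoechst during a one-step fixation (final 0.05% Triton X-100, 1% formaldehyde, 1 ug/ml Hoechst) carried out 5 days after dosing, then counted on 4× images. The cells, lung cancer lines in 1536-well plates, had been dosed by pin tool the day after seeding with one drug alone or a fixed anchor-drug dose plus five library-drug doses (not always all listed) in √10 steps. Relative viability is the nuclei count in treated wells divided by that in vehicle wells, and each value is the median of duplicate plates.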

[2] = system: LCLC-103H
In short: as §1

[3] = system: NCI-H460
In short: as §1

[4] = system: HCC-827
In short: as §1

[5] = system: HOP-62
In short: as §1

[6] = system: HARA
In short: as §1

[7] = system: NCI-H23
In short: as §1

[8] = system: NCI-H522
In short: as §1

[9] = system: NCI-H1437
In short: as §1

[10] = system: NCI-H1395
In short: as §1

[11] = system: NCI-H2228
In short: as §1

[12] = system: EMC-BAC-2
In short: as §1

[13] = system: SK-LU-1
In short: as §1

[14] = system: NCI-H727
In short: as §1

[15] = system: NCI-H1792
In short: as §1

[16] = system: SW 1573
In short: as §1

[17] = system: CAL-12T
In short: as §1

[18] = system: COR-L 105
In short: as §1

[19] = system: NCI-H2009
In short: as §1

[20] = system: A-427
In short: as §1

[21] = system: NCI-H1915
In short: as §1

## O=c1cc(-c2cccc3c2Sc2ccccc2S3)oc(N2CCOCC2)c1 + CCNC(=O)c1noc(-c2cc(C(C)C)c(O)cc2O)c1-c1ccc(CN2CCOCC2)cc1 [Luminespib] (partner 0.01 µM)
[1]; first compound 0.08 µM
  relative viability: 0.425
[1]; first compound 0.253 µM
  relative viability: 0.614
[1]; first compound 0.8 µM
  relative viability: 0.378
[1]; first compound 2.53 µM
  relative viability: 0.641
[1]; first compound 8 µM
  relative viability: 0.5
[2]; first compound 0.08 µM
  relative viability: 0.878
[2]; first compound 0.253 µM
  relative viability: 1.17
[2]; first compound 0.8 µM
  relative viability: 1.05
[2]; first compound 2.53 µM
  relative viability: 0.959
[2]; first compound 8 µM
  relative viability: 0.792
[3]; first compound 0.08 µM
  relative viability: 0.0288
[3]; first compound 0.253 µM
  relative viability: 0.0357
[3]; first compound 0.8 µM
  relative viability: 0.0367
[3]; first compound 2.53 µM
  relative viability: 0.0306
[3]; first compound 8 µM
  relative viability: 0.0332
[4]; first compound 0.08 µM
  relative viability: 0.582
[4]; first compound 0.253 µM
  relative viability: 0.588
[4]; first compound 0.8 µM
  relative viability: 0.656
[4]; first compound 2.53 µM
  relative viability: 0.588
[4]; first compound 8 µM
  relative viability: 0.639
[5]; first compound 0.08 µM
  relative viability: 1.06
[5]; first compound 0.253 µM
  relative viability: 1.04
[5]; first compound 0.8 µM
  relative viability: 1.03
[5]; first compound 2.53 µM
  relative viability: 0.983
[5]; first compound 8 µM
  relative viability: 1.02
[6]; first compound 0.08 µM
  relative viability: 0.708
[6]; first compound 0.253 µM
  relative viability: 0.808
[6]; first compound 0.8 µM
  relative viability: 0.822
[6]; first compound 2.53 µM
  relative viability: 0.576
[6]; first compound 8 µM
  relative viability: 0.834
[7]; first compound 0.08 µM
  relative viability: 0.195
[7]; first compound 0.253 µM
  relative viability: 0.228
[7]; first compound 0.8 µM
  relative viability: 0.188
[7]; first compound 2.53 µM
  relative viability: 0.219
[7]; first compound 8 µM
  relative viability: 0.209
[8]; first compound 0.08 µM
  relative viability: 0.999
[8]; first compound 0.253 µM
  relative viability: 1.03
[8]; first compound 0.8 µM
  relative viability: 1.21
[8]; first compound 2.53 µM
  relative viability: 1.13
[8]; first compound 8 µM
  relative viability: 1.08
[9]; first compound 0.08 µM
  relative viability: 1.08
[9]; first compound 0.253 µM
  relative viability: 1.29
[9]; first compound 0.8 µM
  relative viability: 1.28
[9]; first compound 2.53 µM
  relative viability: 1.15
[9]; first compound 8 µM
  relative viability: 1.21
[10]; first compound 0.08 µM
  relative viability: 0.632
[10]; first compound 0.253 µM
  relative viability: 0.712
[10]; first compound 0.8 µM
  relative viability: 0.658
[10]; first compound 2.53 µM
  relative viability: 0.63
[10]; first compound 8 µM
  relative viability: 0.661
[11]; first compound 0.08 µM
  relative viability: 0.139
[11]; first compound 0.253 µM
  relative viability: 0.106
[11]; first compound 0.8 µM
  relative viability: 0.129
[11]; first compound 2.53 µM
  relative viability: 0.146
[11]; first compound 8 µM
  relative viability: 0.143
[12]; first compound 0.08 µM
  relative viability: 1.16
[12]; first compound 0.253 µM
  relative viability: 1.31
[12]; first compound 0.8 µM
  relative viability: 1.13
[12]; first compound 2.53 µM
  relative viability: 1.18
[12]; first compound 8 µM
  relative viability: 1.27
[13]; first compound 0.08 µM
  relative viability: 0.192
[13]; first compound 0.253 µM
  relative viability: 0.186
[13]; first compound 0.8 µM
  relative viability: 0.209
[13]; first compound 2.53 µM
  relative viability: 0.178
[13]; first compound 8 µM
  relative viability: 0.183
[14]; first compound 0.08 µM
  relative viability: 0.289
[14]; first compound 0.253 µM
  relative viability: 0.449
[14]; first compound 0.8 µM
  relative viability: 0.307
[14]; first compound 2.53 µM
  relative viability: 0.536
[14]; first compound 8 µM
  relative viability: 0.382
[15]; first compound 0.08 µM
  relative viability: 0.362
[15]; first compound 0.253 µM
  relative viability: 0.686
[15]; first compound 0.8 µM
  relative viability: 0.329
[15]; first compound 2.53 µM
  relative viability: 0.424
[15]; first compound 8 µM
  relative viability: 0.328
[16]; first compound 0.08 µM
  relative viability: 0.213
[16]; first compound 0.253 µM
  relative viability: 0.18
[16]; first compound 0.8 µM
  relative viability: 0.495
[16]; first compound 2.53 µM
  relative viability: 0.194
[16]; first compound 8 µM
  relative viability: 0.237
[17]; first compound 0.08 µM
  relative viability: 0.277
[17]; first compound 0.253 µM
  relative viability: 0.708
[17]; first compound 0.8 µM
  relative viability: 0.506
[17]; first compound 2.53 µM
  relative viability: 0.299
[17]; first compound 8 µM
  relative viability: 0.207
[18]; first compound 0.08 µM
  relative viability: 0.701
[18]; first compound 0.253 µM
  relative viability: 0.762
[18]; first compound 0.8 µM
  relative viability: 0.705
[18]; first compound 2.53 µM
  relative viability: 0.671
[18]; first compound 8 µM
  relative viability: 1.02
[19]; first compound 0.08 µM
  relative viability: 1.07
[19]; first compound 0.253 µM
  relative viability: 1.1
[19]; first compound 0.8 µM
  relative viability: 1.01
[19]; first compound 2.53 µM
  relative viability: 0.939
[19]; first compound 8 µM
  relative viability: 1
[20]; first compound 0.08 µM
  relative viability: 0.92
[20]; first compound 0.253 µM
  relative viability: 1.18
[20]; first compound 0.8 µM
  relative viability: 1.01
[20]; first compound 2.53 µM
  relative viability: 0.842
[20]; first compound 8 µM
  relative viability: 1.09
[21]; first compound 0.08 µM
  relative viability: 0.968
[21]; first compound 0.253 µM
  relative viability: 0.827
[21]; first compound 0.8 µM
  relative viability: 0.911
[21]; first compound 2.53 µM
  relative viability: 0.775
[21]; first compound 8 µM
  relative viability: 0.769
